Assay results as given in patent US20090162314A1, “Magnesium-Containing Polymers for the Treatment of Hyperphosphatemia” (priority 2005, published 2009).

System: urinary phosphate
Experiment: In vivo phosphate binding: urinary phosphate levels in rats fed test compound in diet
Parameters: species or system Sprague Dawley (SD) rats
Details: SD rats, urine days 5 and 6, cellulose control
Method: House male Sprague Dawley (SD) rats were used for the experiments. The rats were placed singly in wire-bottom cages, fed with Purina 5002 diet, and allowed to acclimate for at least 5 days prior to experimental use.
To establish baseline phosphorus excretion, the rats were placed in metabolic cages for 48 hours. Their urine was collected and its phosphorus content analyzed with a Hitachi analyzer to determine phosphorus excretion in mg/day. Any rats with outlying values were excluded; and the remainder of the rats was distributed into groups.
Purina 5002 was used as the standard diet. The compound being tested was mixed with Purina 5002 to result in a final concentration by weight as noted in the table. Cellulose at 0.5% by weight was used as a negative control. For each rat, 200 g of diet was prepared.
Each rat was weighed and placed on the standard diet. After 4 days the standard diet was replaced with the treatment diet (or control diet for the control group). On days 5 and 6, urine samples from the rats at 24 hours (+/−30 minutes) were collected and analyzed. The test rats were again weighed, and any weight loss or gain was calculated. Any remaining food was also weighed to calculate the amount of food consumed per day. A change in phosphorus excretion relative to baseline and cellulose negative control was calculated using Excel program.

SMILES	% Urinary Phosphate Relative to that of Control Animals (2.38 % of diet)	% Urinary Phosphate Relative to that of Control Animals (0.20 % of diet)	% Urinary Phosphate Relative to that of Control Animals (0.25 % of diet)	% Urinary Phosphate Relative to that of Control Animals (0.30 % of diet)	% Urinary Phosphate Relative to that of Control Animals (0.40 % of diet)	% Urinary Phosphate Relative to that of Control Animals (1.00 % of diet)
[Cl-].[Cl-].[Mg+2] [MgCl2]	57.0%					
[Mg+2].[O-2] [MgO]		61.6%	69.3%	54.8%	26.1%	3.6%
